Assay results published in ChEMBL document CHEMBL5212743, “Selectivity Literature for EUbOPEN Chemogenomics Library wave 3” (2023).
pIC50, pKd, pKi: −log10 of the molar value.

How the values were obtained:
[1] = target: T1, Gamma-aminobutyric acid receptor subunit alpha-1 (Homo sapiens, UniProt P14867); assay: Selectivity interaction (GPCR panel (PDSP screen)) EUB0000720a GABRA1
T1 sequence (P14867 whole entry): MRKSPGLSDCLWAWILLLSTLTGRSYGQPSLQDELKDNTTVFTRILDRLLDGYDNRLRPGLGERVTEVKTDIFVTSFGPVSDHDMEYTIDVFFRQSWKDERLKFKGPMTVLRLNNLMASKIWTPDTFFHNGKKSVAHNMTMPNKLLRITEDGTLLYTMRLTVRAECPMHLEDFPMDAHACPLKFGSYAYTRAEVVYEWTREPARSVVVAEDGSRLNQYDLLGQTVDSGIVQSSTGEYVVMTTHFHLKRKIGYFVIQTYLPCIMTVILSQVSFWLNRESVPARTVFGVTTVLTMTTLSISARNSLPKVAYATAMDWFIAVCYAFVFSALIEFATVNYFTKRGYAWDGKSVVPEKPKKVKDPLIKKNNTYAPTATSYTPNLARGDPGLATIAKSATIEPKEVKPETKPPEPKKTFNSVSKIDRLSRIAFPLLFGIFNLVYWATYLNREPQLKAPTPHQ

[2] = target: T2, 5-hydroxytryptamine receptor 2B (Homo sapiens, UniProt P41595); assay: Selectivity interaction (Lead profiling screen (Eurofins-Panlabs)) EUB0000720a HTR2B; conditions: at 10 µM
[3] = target: RAC-gamma serine/threonine-protein kinase (Homo sapiens) (UniProt Q9Y243); assay: Selectivity interaction (KinomeScan (DiscoverX)) EUB0000751a AKT3; conditions: at 100 nM
[4] = target: cGMP-inhibited 3',5'-cyclic phosphodiesterase 3A (Homo sapiens, UniProt Q14432); assay: Selectivity interaction (PDE panel (enzymatic activity assay)) EUB0000751a PDE3A
[5] = target: T3, Sodium/nucleoside cotransporter 2 (Homo sapiens, UniProt O43868); assay: Selectivity interaction (Enzyme panel (Eurofins-Panlabs radioligand binding assays)) EUB0000751a SLC28A2
T3 sequence (O43868 whole entry): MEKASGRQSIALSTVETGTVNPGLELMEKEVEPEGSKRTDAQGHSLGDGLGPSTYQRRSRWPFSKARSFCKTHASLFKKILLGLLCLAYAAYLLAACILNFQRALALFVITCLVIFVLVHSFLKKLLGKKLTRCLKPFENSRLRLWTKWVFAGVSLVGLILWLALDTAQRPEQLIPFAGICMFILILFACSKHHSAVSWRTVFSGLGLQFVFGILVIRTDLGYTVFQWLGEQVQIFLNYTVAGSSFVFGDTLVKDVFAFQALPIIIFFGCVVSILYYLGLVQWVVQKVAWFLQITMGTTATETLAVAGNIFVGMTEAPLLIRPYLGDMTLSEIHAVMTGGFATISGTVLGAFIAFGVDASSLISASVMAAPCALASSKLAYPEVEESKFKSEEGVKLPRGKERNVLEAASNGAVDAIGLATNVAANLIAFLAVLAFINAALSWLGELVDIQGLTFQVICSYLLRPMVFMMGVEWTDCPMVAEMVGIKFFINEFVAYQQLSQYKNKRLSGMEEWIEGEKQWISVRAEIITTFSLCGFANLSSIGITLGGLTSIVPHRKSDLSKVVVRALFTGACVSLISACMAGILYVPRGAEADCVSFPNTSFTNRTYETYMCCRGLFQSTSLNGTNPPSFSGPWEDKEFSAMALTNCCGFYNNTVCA

[6] = target: T3, Sodium/nucleoside cotransporter 2; assay: Selectivity interaction (Enzyme panel (Eurofins-Panlabs enzyme assay)) EUB0000751a SLC28A2
[7] = target: High affinity 3',5'-cyclic-AMP phosphodiesterase 7A (Homo sapiens, UniProt Q13946); assay: Selectivity interaction (PDE panel (enzymatic activity assay)) EUB0000751a PDE7A
[8] = target: T4, Histone-lysine N-methyltransferase SETD7 (Homo sapiens, UniProt Q8WTS6); assay: Selectivity interaction (Methyltransferase panel (radioactive enzyme assay)) EUB0000216b SETD7
T4 sequence (Q8WTS6 whole entry): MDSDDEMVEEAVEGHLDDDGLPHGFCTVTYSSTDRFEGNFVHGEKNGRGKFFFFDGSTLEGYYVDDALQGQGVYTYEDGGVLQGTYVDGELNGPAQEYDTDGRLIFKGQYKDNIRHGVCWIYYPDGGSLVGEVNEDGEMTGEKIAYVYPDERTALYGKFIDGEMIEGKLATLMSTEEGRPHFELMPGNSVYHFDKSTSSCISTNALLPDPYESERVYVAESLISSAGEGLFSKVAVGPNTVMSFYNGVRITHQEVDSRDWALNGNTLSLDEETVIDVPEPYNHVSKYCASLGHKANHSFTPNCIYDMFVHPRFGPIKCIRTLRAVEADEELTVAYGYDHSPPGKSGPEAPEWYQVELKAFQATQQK

[9] = target: Histone-lysine N-methyltransferase EHMT1 (Homo sapiens, UniProt Q9H9B1); assay: Selectivity interaction (Methyltransferase panel (radioactive enzyme assay)) EUB0000216b EHMT1
[10] = target: Protein arginine N-methyltransferase 3 (Homo sapiens, UniProt O60678); assay: Selectivity interaction (Methyltransferase panel (radioactive enzyme assay)) EUB0000216b PRMT3
[11] = target: Histone-lysine N-methyltransferase EZH2 (Homo sapiens, UniProt Q15910); assay: Selectivity interaction (Methyltransferase panel (radioactive enzyme assay)) EUB0000216b EZH2
[12] = target: Histone-lysine N-methyltransferase KMT5C (Homo sapiens, UniProt Q86Y97); assay: Selectivity interaction (Methyltransferase panel (radioactive enzyme assay)) EUB0000216b SUV420H2
[13] = target: Histone-lysine N-methyltransferase 2A (Homo sapiens, UniProt Q03164); assay: Selectivity interaction (Methyltransferase panel (radioactive enzyme assay)) EUB0000216b MLL
[14] = target: Histone-lysine N-methyltransferase EHMT2 (Homo sapiens, UniProt Q96KQ7); assay: Selectivity interaction (Methyltransferase panel (radioactive enzyme assay)) EUB0000216b EHMT2
[15] = target: T5, Alpha-1A adrenergic receptor (Homo sapiens) (UniProt P35348); assay: Selectivity interaction (Receptor panel (Ricerca)) EUB0000216b ADRA1A; conditions: at 1 µM
T5 sequence (whole entry): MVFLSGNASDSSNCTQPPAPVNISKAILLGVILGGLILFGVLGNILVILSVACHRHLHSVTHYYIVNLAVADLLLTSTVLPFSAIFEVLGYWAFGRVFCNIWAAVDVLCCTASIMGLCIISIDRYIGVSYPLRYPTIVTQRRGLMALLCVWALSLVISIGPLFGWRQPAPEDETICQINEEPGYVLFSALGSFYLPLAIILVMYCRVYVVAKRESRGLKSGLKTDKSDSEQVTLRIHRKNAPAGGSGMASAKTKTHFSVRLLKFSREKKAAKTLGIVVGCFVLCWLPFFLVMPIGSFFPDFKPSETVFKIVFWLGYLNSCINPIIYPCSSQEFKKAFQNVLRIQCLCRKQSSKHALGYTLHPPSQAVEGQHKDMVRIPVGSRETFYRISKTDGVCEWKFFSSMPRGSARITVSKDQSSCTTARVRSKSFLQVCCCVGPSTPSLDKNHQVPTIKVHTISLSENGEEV

[16] = target: T6, N-lysine methyltransferase KMT5A (Homo sapiens, UniProt Q9NQR1); assay: Selectivity interaction (Methyltransferase panel (radioactive enzyme assay)) EUB0000216b SETD8
T6 sequence (Q9NQR1 whole entry): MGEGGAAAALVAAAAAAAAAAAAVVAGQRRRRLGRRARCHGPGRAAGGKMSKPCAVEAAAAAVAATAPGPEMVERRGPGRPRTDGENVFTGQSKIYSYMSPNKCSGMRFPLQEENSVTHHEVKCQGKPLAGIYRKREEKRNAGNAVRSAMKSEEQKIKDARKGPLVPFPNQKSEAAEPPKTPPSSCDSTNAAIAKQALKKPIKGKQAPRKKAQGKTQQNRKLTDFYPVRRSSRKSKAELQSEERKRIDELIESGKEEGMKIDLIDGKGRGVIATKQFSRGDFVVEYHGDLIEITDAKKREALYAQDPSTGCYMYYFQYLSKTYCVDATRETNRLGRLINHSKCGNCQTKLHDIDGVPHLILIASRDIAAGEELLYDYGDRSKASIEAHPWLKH

[17] = target: Histone-lysine N-methyltransferase SUV39H2 (Homo sapiens, UniProt Q9H5I1); assay: Selectivity interaction (Methyltransferase panel (radioactive enzyme assay)) EUB0000216b SUV39H2
[18] = target: Protein arginine N-methyltransferase 5 (Homo sapiens, UniProt O14744); assay: Selectivity interaction (Methyltransferase panel (radioactive enzyme assay)) EUB0000216b PRMT5
[19] = target: Histone-lysine N-methyltransferase SETDB1 (Homo sapiens, UniProt Q15047); assay: Selectivity interaction (Methyltransferase panel (radioactive enzyme assay)) EUB0000216b SETDB1
[20] = target: cGMP-dependent protein kinase 2 (Homo sapiens) (UniProt Q13237); assay: Selectivity interaction (Enzyme panel (kinases, GPCRs, ion channels, transporters)) EUB0000197b PRKG2; conditions: at 10 µM
[21] = target: Mitogen-activated protein kinase kinase kinase 12 (Homo sapiens) (UniProt Q12852); assay: Selectivity interaction (Enzyme panel (kinases, GPCRs, ion channels, transporters)) EUB0000197b DLK1; conditions: at 10 µM
[22] = target: Ribosomal protein S6 kinase alpha-4 (Homo sapiens) (UniProt O75676); assay: Selectivity interaction (Enzyme panel (kinases, GPCRs, ion channels, transporters)) EUB0000197b RPS6KA4; conditions: at 10 µM
[23] = target: Serine/threonine-protein kinase BRSK1 (Homo sapiens) (UniProt Q8TDC3); assay: Selectivity interaction (Enzyme panel (kinases, GPCRs, ion channels, transporters)) EUB0000197b BRSK1; conditions: at 10 µM
[24] = target: T2, 5-hydroxytryptamine receptor 2B; assay: (§1) Selectivity interaction (Enzyme panel (kinases, GPCRs, ion channels, transporters)) EUB0000197b HTR2B; conditions: at 10 µM
[25] = target: Protein N-lysine methyltransferase METTL21A (Homo sapiens) (UniProt Q8WXB1); assay: Selectivity interaction (Methyltransferase panel) EUB0000197b METTL21A
[26] = target: T2, 5-hydroxytryptamine receptor 2B; assay: as §1
[27] = target: cAMP-dependent protein kinase catalytic subunit PRKX (Homo sapiens) (UniProt P51817); assay: Selectivity interaction (Enzyme panel (kinases, GPCRs, ion channels, transporters)) EUB0000197b PRKX; conditions: at 10 µM
[28] = target: Activin receptor type-1 (Homo sapiens, UniProt Q04771); assay: Selectivity interaction (KinomeScan (DiscoverX, competition-binding assay)) EUB0000207b ACVR1
[29] = target: T1, Gamma-aminobutyric acid receptor subunit alpha-1; assay: Selectivity interaction (GPCR panel (PDSP screen)) EUB0000719a GABRA1

T2 sequence (P41595 whole entry): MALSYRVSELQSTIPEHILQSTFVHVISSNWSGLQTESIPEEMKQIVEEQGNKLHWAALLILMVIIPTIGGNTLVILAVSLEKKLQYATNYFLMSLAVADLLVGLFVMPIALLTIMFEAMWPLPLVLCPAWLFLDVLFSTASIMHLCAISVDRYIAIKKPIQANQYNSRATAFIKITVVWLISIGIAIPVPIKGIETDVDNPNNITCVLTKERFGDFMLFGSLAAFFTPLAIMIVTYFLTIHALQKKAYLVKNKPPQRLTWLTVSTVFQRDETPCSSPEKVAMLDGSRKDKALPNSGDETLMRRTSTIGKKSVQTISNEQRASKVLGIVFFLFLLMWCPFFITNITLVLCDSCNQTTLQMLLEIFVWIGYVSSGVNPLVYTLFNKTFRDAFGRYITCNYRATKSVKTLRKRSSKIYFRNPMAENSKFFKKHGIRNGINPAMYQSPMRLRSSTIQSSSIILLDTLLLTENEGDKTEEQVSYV
Sequence of cGMP-dependent protein kinase 2 (Homo sapiens) (Q13237 whole entry): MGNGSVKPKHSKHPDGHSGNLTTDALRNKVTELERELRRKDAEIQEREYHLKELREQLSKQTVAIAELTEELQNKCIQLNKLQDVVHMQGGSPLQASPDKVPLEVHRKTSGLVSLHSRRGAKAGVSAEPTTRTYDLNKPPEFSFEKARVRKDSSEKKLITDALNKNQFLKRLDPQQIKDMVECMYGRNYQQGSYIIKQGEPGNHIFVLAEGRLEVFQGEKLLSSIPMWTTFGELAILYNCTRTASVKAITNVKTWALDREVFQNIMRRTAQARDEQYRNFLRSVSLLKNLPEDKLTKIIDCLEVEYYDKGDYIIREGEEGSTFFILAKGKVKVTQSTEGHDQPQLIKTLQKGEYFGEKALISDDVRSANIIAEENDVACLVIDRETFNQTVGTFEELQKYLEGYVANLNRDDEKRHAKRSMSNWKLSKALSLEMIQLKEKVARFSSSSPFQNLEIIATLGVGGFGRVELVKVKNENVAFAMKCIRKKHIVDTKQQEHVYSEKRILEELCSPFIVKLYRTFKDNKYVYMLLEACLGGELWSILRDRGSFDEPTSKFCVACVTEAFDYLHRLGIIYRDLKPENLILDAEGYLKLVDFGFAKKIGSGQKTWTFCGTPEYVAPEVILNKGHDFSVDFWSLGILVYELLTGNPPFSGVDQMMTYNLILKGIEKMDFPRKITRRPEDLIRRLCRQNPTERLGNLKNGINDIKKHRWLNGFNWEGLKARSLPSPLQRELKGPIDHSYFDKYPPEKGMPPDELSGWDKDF
Sequence of Histone-lysine N-methyltransferase EZH2 (Q15910 whole entry): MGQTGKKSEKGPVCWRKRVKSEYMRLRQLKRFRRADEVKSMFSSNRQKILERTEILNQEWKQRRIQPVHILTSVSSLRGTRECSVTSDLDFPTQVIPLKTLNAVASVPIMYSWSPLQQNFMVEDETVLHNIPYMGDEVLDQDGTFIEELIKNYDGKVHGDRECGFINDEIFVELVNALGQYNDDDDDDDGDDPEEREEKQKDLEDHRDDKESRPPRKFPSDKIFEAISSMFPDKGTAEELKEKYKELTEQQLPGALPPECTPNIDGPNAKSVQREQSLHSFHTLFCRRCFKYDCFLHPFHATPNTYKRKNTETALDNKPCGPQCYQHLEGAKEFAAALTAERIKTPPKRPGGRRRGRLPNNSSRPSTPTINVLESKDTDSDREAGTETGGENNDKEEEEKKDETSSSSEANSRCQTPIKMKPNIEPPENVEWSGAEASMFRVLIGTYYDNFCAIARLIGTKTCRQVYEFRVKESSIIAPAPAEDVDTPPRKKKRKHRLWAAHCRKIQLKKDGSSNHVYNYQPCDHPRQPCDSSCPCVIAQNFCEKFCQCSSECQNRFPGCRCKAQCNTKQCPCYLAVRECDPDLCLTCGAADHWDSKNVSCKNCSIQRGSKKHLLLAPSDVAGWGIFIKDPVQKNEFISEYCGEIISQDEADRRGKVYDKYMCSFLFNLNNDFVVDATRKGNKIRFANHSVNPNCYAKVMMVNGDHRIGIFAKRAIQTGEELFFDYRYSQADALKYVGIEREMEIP
Sequence of cAMP-dependent protein kinase catalytic subunit PRKX (Homo sapiens) (P51817 whole entry): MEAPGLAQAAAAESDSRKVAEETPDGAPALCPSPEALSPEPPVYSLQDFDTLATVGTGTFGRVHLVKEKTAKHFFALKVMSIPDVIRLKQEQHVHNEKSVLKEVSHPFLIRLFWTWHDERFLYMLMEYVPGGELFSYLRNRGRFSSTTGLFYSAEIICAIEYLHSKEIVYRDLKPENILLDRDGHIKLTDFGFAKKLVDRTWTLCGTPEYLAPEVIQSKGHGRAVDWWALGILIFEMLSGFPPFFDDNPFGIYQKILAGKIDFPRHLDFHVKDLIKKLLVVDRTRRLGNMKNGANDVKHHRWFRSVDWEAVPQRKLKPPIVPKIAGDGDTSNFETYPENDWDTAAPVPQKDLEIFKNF
Sequence of Protein arginine N-methyltransferase 3 (O60678 whole entry): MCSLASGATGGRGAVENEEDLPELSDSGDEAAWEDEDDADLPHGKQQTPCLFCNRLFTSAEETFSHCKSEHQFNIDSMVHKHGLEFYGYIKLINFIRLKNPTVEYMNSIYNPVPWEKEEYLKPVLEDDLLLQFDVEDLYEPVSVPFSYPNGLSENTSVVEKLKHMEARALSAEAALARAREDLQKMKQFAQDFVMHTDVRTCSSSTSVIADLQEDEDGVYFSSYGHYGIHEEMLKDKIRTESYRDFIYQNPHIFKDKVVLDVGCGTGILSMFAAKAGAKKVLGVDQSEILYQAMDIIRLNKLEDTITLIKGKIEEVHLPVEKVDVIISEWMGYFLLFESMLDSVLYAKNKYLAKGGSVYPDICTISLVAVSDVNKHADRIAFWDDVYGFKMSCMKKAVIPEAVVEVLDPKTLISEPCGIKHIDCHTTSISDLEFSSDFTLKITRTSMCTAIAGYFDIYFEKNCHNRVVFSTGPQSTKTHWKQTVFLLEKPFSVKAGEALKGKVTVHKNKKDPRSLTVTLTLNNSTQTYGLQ
Sequence of Protein N-lysine methyltransferase METTL21A (Homo sapiens) (Q8WXB1 whole entry): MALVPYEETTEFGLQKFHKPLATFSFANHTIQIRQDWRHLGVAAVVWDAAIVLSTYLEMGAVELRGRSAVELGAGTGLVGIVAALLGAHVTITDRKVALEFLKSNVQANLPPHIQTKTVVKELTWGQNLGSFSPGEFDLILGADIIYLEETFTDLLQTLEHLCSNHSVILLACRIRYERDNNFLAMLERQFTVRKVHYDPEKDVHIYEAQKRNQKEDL
Sequence of Histone-lysine N-methyltransferase EHMT2 (Q96KQ7 whole entry): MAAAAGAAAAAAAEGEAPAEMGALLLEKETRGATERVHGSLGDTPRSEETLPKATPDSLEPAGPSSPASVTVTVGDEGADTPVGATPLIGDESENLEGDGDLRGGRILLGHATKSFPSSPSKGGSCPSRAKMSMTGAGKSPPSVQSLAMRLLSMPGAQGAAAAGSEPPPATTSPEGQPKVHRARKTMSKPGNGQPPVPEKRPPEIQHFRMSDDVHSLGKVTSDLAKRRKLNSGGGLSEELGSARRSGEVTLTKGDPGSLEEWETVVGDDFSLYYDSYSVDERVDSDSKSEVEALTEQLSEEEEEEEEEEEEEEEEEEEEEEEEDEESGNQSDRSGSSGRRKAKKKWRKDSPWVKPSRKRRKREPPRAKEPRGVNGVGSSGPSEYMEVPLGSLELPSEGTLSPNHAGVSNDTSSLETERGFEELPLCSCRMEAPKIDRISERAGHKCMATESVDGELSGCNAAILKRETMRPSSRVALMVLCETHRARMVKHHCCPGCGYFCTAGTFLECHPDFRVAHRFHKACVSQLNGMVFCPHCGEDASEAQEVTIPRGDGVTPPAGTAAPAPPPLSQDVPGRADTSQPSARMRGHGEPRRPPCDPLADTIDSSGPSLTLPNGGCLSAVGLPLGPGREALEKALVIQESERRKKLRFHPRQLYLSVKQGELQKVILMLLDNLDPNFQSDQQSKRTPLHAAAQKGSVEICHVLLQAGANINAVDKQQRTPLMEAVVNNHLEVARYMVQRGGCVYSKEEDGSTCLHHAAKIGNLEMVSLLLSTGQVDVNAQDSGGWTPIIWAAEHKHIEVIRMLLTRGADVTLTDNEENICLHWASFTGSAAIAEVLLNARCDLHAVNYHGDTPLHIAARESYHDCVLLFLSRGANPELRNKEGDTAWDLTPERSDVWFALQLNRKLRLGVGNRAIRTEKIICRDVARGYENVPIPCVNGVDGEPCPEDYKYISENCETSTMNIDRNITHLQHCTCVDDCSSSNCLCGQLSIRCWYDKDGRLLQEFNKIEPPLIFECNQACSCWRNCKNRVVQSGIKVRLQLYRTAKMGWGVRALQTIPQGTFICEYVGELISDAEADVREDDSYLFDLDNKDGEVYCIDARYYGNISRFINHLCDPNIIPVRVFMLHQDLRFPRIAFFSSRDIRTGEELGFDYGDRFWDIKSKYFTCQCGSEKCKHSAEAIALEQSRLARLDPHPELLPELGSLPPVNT
Sequence of High affinity 3',5'-cyclic-AMP phosphodiesterase 7A (Q13946 whole entry): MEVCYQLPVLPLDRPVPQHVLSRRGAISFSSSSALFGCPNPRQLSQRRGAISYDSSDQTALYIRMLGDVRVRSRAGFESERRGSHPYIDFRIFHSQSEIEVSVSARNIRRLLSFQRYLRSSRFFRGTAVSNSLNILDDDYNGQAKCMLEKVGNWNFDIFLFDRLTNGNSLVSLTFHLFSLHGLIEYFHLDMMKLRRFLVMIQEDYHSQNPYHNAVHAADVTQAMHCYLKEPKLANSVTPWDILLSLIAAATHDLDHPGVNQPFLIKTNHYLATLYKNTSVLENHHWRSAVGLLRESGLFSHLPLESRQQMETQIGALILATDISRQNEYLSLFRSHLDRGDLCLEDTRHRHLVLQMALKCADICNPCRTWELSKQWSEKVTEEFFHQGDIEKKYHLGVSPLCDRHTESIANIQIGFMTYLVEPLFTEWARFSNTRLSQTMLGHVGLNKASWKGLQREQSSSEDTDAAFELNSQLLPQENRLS

`CN1C(=O)[C@@H](N2CCc3c(nn(Cc4ccccc4)c3Br)C2=O)COc2ccccc21` [TP-030-2] gave a pKi [1] of 6.46 and a % of control [2] of 63%.
Work on `COCCOc1nc(-c2ccc(Cl)nc2)nc2c1CN(C(=O)c1ncn3ccccc13)CC2` [THPP-1] yielded a % of control [3] of 47%, a pKi [4] of under 2.48 and a pIC50 [5] of 5.79. It also gave a pIC50 [6] of 5.79 and a pKi [7] of under 4.95.
In the case of `CC(C)N(CCCNC(=O)Nc1ccc(C(C)(C)C)cc1)C[C@H]1O[C@@H](n2cc(Br)c3c(N)ncnc32)[C@H](O)[C@@H]1O`, the pIC50 [8] was under 4.00, the pIC50 [9] was under 4.00 and the pIC50 [10] was under 4.00. It also gave a pIC50 [11] of under 4.00, a pIC50 [12] of under 4.00 and a pIC50 [13] of under 4.00. For the same compound, the pIC50 [14] was under 4.00, the % of inhibition [15] was 22% and the pIC50 [16] was under 4.00. It also gave a pIC50 [17] of under 4.00, a pIC50 [18] of under 4.00 and a pIC50 [19] of under 4.00.
`O=C(NCC(=O)N1CCCC1)Nc1ccc2cnccc2c1` gave a % of control [20] of 58%, a % of control [21] of 60% and a % of control [22] of 55%. For the same compound, the % of control [23] was 56%, the % of control [24] was 69% and the % of control [25] was 60%. It also gave a pKi [26] of under 4.82 and a % of control [27] of 61%.
`COc1cc(Nc2ccnc3ccc(Br)cc23)cc(OC)c1OC` gave a pKd [28] of 6.01.
`CN1C(=O)[C@@H](N2CCc3cn(Cc4ccccc4)nc3C2=O)COc2ccccc21` [TP-030-1] was tested, and the pKi [29] was 6.43.
